# Experiment: Human HepG2 cell viability assay in 384 well format
# Assay type: toxicity, cell-based
# Parameters: dose 125 nL, time 70.5 hour; cytotoxicity at 70.5 h: concentration not given beside the values
# Settings: HepG2 cells, read-out: Inhibition
row,SMILES,cytotoxicity at 70.5 h
1,Cc1cc(C(F)(F)F)nc(CCNc2nc(C)nc3c2cnn3C)n1,-4.44%
2,Cc1noc(CCCC(=O)NC(C)c2ccccn2)n1 (centres undefined),-0.329%
3,O=C(Cn1cc(I)cn1)N1CCCCCC1,-3.07%
4,COCC(=O)N1CCC(C)(c2cc(O)[nH]n2)CC1,0.0821%
5,CC(C)CNC(=O)c1ccc(NC(=O)NCC2CC2)cc1Cl,-12.7%
6,COCCC(C)NC(=O)Nc1ccc(N2CCOC2=O)c(OC)c1 (centres undefined),-11%
7,CN(C)C(=O)Cn1ccc2cc(NC(=O)N3CCSCC3)ccc21,-7.46%
8,COCCN1CC[C@H]2OCC[C@@H](C(=O)N3CCCO3)[C@H]2C1,47%
9,CCn1cc(N)c(C(=O)NCc2cnn(C)c2)n1,-7.78%
10,CCN1CCN(C(=O)CCC2CCN(C(=O)CCSC)CC2)CC1,22.6%
11,CCCc1cc(N(CCOC)CC(F)F)n2ncnc2n1,18.6%
12,Cc1cccc(CN2C[C@@H]3CN(Cc4ccoc4)CCO[C@@H]3C2)n1,-1.63%
13,CO[C@H]1CCN(S(=O)(=O)c2cn(C)cn2)[C@H]1Cc1cnn(C)c1,-14.3%
14,Cc1nc(C)n(CC2CCCN(CCC(=O)NC3CCCC3)C2)n1 (centres undefined),24.8%
15,Cn1nc2c(cc1=O)CN(CCN1CCCC1=O)CC2,-1.09%
16,COc1cnc(N2CCN(C)CC2)nc1-c1ccnn1C,-6.6%
17,CCc1nc(NS(=O)(=O)c2ccc(F)cc2Cl)no1,-8.4%
18,O=C1[C@H]2CN(Cc3cccs3)C[C@H]2CN1c1ccsc1,-5.8%
19,C=C(C)COc1ccccc1CNCCc1c[nH]cn1,2.66%
20,CC(C)N(C)S(=O)(=O)N(Cc1cccs1)Cc1cccs1,-12.9%
21,Cc1ccccc1CC(=O)N1C[C@@H]2COC[C@]2(CN(C)C)C1,-6.68%
22,Cc1cc(C(C)(O)CNC(=O)c2ccc(Br)o2)c(C)o1 (centres undefined),-0.275%
23,CO[C@@H]1CCN(S(=O)(=O)c2cn(C)cn2)[C@H]1Cc1cnn(C)c1,-0.546%

row,SMILES,cytotoxicity at 70.5 h
1,CCN(CC)c1ccc(NC(=O)NC(C)Cn2cccn2)cn1 (centres undefined),-6.74%
2,O=C(NCCN1CCOCC1)c1ccc(-n2ccc3ccccc32)s1,-8.71%
3,CCC(=O)c1ccc(OCC(=O)NC(C)c2ncnn2CC)cc1 (centres undefined),-17.2%
4,Cc1cnc(N2CCC3(CCCN(c4ncc(F)cn4)C3)C2)nc1 (centres undefined),-5.99%
5,O=S(=O)(NCc1ccccc1)Nc1cccc(Cn2cncn2)c1,-7.79%
6,CC(NC(=O)c1cc(-c2cccc(Cl)c2)no1)C(=O)N1CCCC1 (centres undefined),-10.6%
7,Cc1cccc(CC2CCCN(C(=O)Cc3csc(C)n3)C2)n1 (centres undefined),-10.5%
8,CN(C)CC(=O)N1CCO[C@@H]2CC(COCc3ccncc3)C[C@H]21 (some centres undefined),-8%
9,CCN1CCc2c(cccc2NC(=O)CN(C)C2CCSC2)C1 (centres undefined),-3.51%
10,O=C1C(N2CC[C@@H](O)C2)CCCN1Cc1cccc(C(F)(F)F)c1 (some centres undefined),-18.9%
11,COCC(=O)NCc1cnc(C)nc1-c1cn(C)c2ccc(OC)cc12,-7.48%
12,CC(C)(C)n1cc(C(=O)N2CCN(Cc3ccccc3F)CC2)cn1,5.09%
13,COCC(=O)N1CCCC2(CCN(c3ccccc3)C2=O)C1 (centres undefined),-13.1%
14,CCn1cnnc1Cn1cccc(C(F)(F)F)c1=O,4.98%
15,Cc1nn(C)c(C)c1-c1nccnc1CC1CCNCC1,-1.07%
16,COC(=O)c1ccc(CNCc2ccn(C)n2)cc1,17.7%
17,O=C(COCC1CC1)N1CCCC(n2cncn2)C1 (centres undefined),-9.93%
18,CN(C)c1ccc(-c2cc(=O)n3c(n2)CCCCC3)cc1,-11%
19,Cc1ccc(CNC2(Cc3cc(CO)on3)COC2)o1,-1.63%
20,O=C(O)C(c1ccc2c(c1)OCCO2)N1CCC(N2CCOCC2)CC1 (centres undefined),0.0244%
21,CN(CCc1ccccn1)C(=O)Cn1cc(-c2ccccc2)nn1,-3.22%
22,CN(C(=O)CSc1ncc[nH]1)c1ccccc1,31.6%
23,CC(C)Cc1nc(OCC(N)=O)c(C#N)c2c1CCC2,14.5%

row,SMILES,cytotoxicity at 70.5 h
1,O=C(CC1CC1)N1C[C@@H](O)[C@H](N2CCN(c3ccccc3)CC2)C1,22.4%
2,COCCNC(=O)Cn1cc(OCc2ccc(F)cc2)c(=O)cc1C,9.56%
3,O=C(CCN1C(=O)CCC1=O)Nc1cnn(-c2ccccc2Cl)c1,10%
4,Cc1ccc(CNCC2CCCN2c2cccnn2)s1 (centres undefined),4.46%
5,CCN(CC)S(=O)(=O)NCC1Cc2ccccc2O1 (centres undefined),-3.76%
6,O=C(Nc1ccccc1OC(F)(F)F)C1CCS(=O)(=O)C1 (centres undefined),-9.01%
7,CCn1cc(S(=O)(=O)N2CCCC3(CC=CNC3=O)C2)c(C)n1 (centres undefined),-1.52%
8,Cn1ncc2c(N3CCC(F)(F)CC3)nc(-c3ccncc3)nc21,-13.7%
9,CS(=O)(=O)NCCNC(=O)C1(c2ccc(F)cc2)CC1,-0.0991%
10,CC1CCN(CCNC(=O)c2ccccc2N2CCOCC2)CC1,-7.45%
11,CN1CC(C(=O)NC2(c3ccc(Cl)cc3)CCOCC2)CC1=O (centres undefined),2.23%
12,Cc1ncc(C(=O)N2CCCC(Cc3nccs3)C2)cn1 (centres undefined),-8.16%
13,c1ccc(-c2cc(CN3CCCCCC3c3ccco3)on2)nc1 (centres undefined),-4.66%
14,Cc1cc(NCC(C)C)ccc1C(=O)N(C)C,13.4%
15,Cc1ccccc1Oc1ncccc1CNC1CCC1,1.33%
16,Cc1ccc(NC(=O)NCC2(O)CCCC2)cc1C,-1.58%
17,O=S(=O)(NCCc1nc(-c2cccnc2)n[nH]1)NCc1ccccc1,-7.05%
18,Cc1c(CN2CCCC(C(=O)Nc3ccccc3)C2)cc(C#N)n1C (centres undefined),-2.58%
19,Nc1nc(CN2CCCCC2Cn2cncn2)nc2ccccc12 (centres undefined),0.228%
20,O=C(CCCOc1cccc(F)c1)N1CCCC(n2cncn2)C1 (centres undefined),1.02%
21,Cc1ccc(-c2[nH][nH]c(=O)c2CCN)cc1,-14.2%
22,Cn1ccnc1CCNS(=O)(=O)c1ccc(Br)cc1,9.92%
23,Cc1ccccc1C(C)CC(=O)N1CC[C@H](O)C1 (some centres undefined),-2.39%

row,SMILES,cytotoxicity at 70.5 h
1,CC(NCc1nnc2n1CCCC2)C(=O)N1CCc2sccc2C1 (centres undefined),-2.4%
2,Cc1ccc(S(=O)(=O)NCC(C)(C)N)c(F)c1,-6.25%
3,CCCc1nc(N2CCCCCC2)c2c(n1)c(C)nn2CC,-11.6%
4,Cc1cc(NC(=O)C(C)N2CCCN(c3nccs3)CC2)on1 (centres undefined),-15.9%
5,CCc1nc(CNc2nc3c(s2)c(C)nn3C)cs1,-3.7%
6,CCO[C@@H]1CO[C@@]2(CCCN(C(=O)c3ccc(OC)c(F)c3)C2)C1,9.35%
7,CC(C)NC(=O)c1sccc1N(C)S(=O)(=O)c1ccc(Cl)cc1,-8.11%
8,Cc1cccc(-c2nc(CN3CC(n4nc(C)cc4C)C3)no2)c1,-4.09%
9,CC(C)CNC(=O)N1C[C@H]2C[C@H](C(=O)NCc3ccccc3)[C@@H](C1)O2,13.9%
10,CN(Cc1ccc(-n2cccn2)cc1)Cc1cnc(N(C)C)nc1,-8.45%
11,CCc1nnc2ccc(N3CCN(S(=O)(=O)c4ccc(C)s4)CC3)nn12,-21.3%
12,O=S1(=O)CCC(N2CCN(c3cc(C(F)(F)F)ccn3)CC2)C1 (centres undefined),1.03%
13,Cc1cnn(C(C)C(=O)NCC2CCN(c3cnn(C)c(=O)c3)CC2)c1 (centres undefined),-5.13%
14,N#Cc1ccc(CNC2CCN(CCc3ccncc3)CC2)cc1,-1.86%
15,CCOCC(=O)N1C[C@@H]2COC[C@]2(c2nc(C)no2)C1,-7.6%
16,O=C(NCC(F)(F)F)C1CSCN1S(=O)(=O)c1ccc(F)cc1Cl (centres undefined),-10.4%
17,CCC1CN(C)c2ccccc2CN1C(=O)c1c[nH]c(=O)cc1C (centres undefined),-11.3%
18,Cc1ccc(CN2CCC[C@@H]3CN(C(=O)c4ccco4)C[C@@H]32)s1,-11%
19,O=C1CC[C@H]2[C@H](CCN2C(=O)C2CCCO2)N1Cc1ccncc1 (some centres undefined),7.56%
20,CC(C)Nc1cccc(CC2CCN(S(C)(=O)=O)CC2)n1,19.5%
21,CC(=O)N(C)CC(=O)NC(C)c1ccc(OCCC(C)C)cc1 (centres undefined),-3.81%
22,O=C(c1ccc(C2CCCN2C(=O)c2ccoc2)s1)N1CCOCC1 (centres undefined),-1.44%
23,CC(C)N(C)C(=O)CN1C(=O)OC[C@@H]1c1ccccc1,0.286%

row,SMILES,cytotoxicity at 70.5 h
1,c1ccc(CN2CCC(NCCSc3cnn[nH]3)C2)cc1 (centres undefined),-3.66%
2,CN(C)C(=O)CN1C[C@@H]2CC[C@H](C1)N(C(=O)CCn1cncn1)C2,-12.6%
3,NC(=O)C1Cn2ccnc2C2(CCN(C(=O)c3ccncc3)CC2)O1 (centres undefined),-4.78%
4,CC(C)C(C#N)N1CCN(Cc2nccn2CC(F)(F)F)CC1 (centres undefined),-10.7%
5,O=C(CCc1nc(Cl)n[nH]1)N1C[C@@H](CN2CCCCCC2)[C@@H](CO)C1,-4.12%
6,COCC(=O)N1CCC(c2cc(-c3ccc(N)nc3)cc(C)n2)CC1,19.1%
7,COc1cccc(-n2ccc3nc(N4CCCC4)ncc3c2=O)c1,-4.05%
8,Cc1nc(CN2CCCN(C(=O)c3c(C)noc3C)CC2)cs1,-5.02%
9,Cc1ncsc1CNC(=O)N(CCCO)C1CCc2ccccc21 (centres undefined),-7.98%
10,CN(C)C(=O)NCc1cc2n(n1)CCN(C[C@H]1[C@@H]3CNC[C@@H]31)C2,15.7%
11,NC(=O)c1cc(C2CCCN(CCCOc3ccc(F)cc3)C2)n[nH]1 (centres undefined),4.69%
12,CCN1CCC(CNC(=O)C2(c3cccc(C)c3)CC2)C1 (centres undefined),0.0668%
13,CN(Cc1ccc2nsnc2c1)C(=O)CCc1cc2n(n1)CCCNC2,-8.3%
14,COCCNC(=O)C1(c2ccc(C)c(OC)c2)CCCC1,-10.9%
15,CC(C)n1cnc(-c2nc(C(=O)N3CCCC3)c3ccccn23)c1,-2.79%
16,Cn1nccc1-c1nnn2c1COC(CNCc1nccs1)C2 (centres undefined),0.565%
17,CCOc1ccccc1C(C(=O)O)N(C)CC1CCOCC1 (centres undefined),21.4%
18,Cc1nc(C(C)C)sc1C(=O)N1CCC(C(N)=O)CC1,6%
19,CNCC(=O)Nc1cccc(-c2cnc(NCCO)nc2)c1,-1.04%
20,c1cc2c(cc1CN1CCCC3(CCOC3)C1)OCO2 (centres undefined),41.1%
21,CCO[C@H]1C[C@@H](O)C12CCN(C(=O)CCN1CCCC1=O)CC2,-9.62%
22,Cc1cc(CN2CCOCS2(=O)=O)ccc1F,-7.79%

# From ChEMBL document CHEMBL3507680, “University of Dundee, Gates Library screen for HepG2 cell viability”
